From ChEMBL document CHEMBL3244076, “N,N'-(Phenylene)dioxamic acids and their esters as antiallergy agents” (1978)

What was measured:
Type in all cases: functional
Rattus norvegicus [1] = assay: Antiallergic activity in anti-egg albumin homocytotropic antibody-sensitized Sprague-Dawley rat assessed as inhibition of passive cutaneous anaphylaxis reaction at 50 mg/kg, po administered 60 mins prior to antigen egg albumin challenge
Rattus norvegicus [2] = assay: Antiallergic activity in anti-egg albumin homocytotropic antibody-sensitized Sprague-Dawley rat assessed as inhibition of passive cutaneous anaphylaxis reaction at 50 mg/kg, po administered 20 mins prior to antigen egg albumin challenge
Rattus norvegicus [3] = assay: Antiallergic activity in anti-egg albumin homocytotropic antibody-sensitized Sprague-Dawley rat assessed as inhibition of passive cutaneous anaphylaxis reaction at 50 mg/kg, po administered 5 mins prior to antigen egg albumin challenge
Rattus norvegicus [4] = assay: Antiallergic activity in anti-egg albumin homocytotropic antibody-sensitized Sprague-Dawley rat assessed as time of peak action for inhibition of passive cutaneous anaphylaxis reaction at 50 mg/kg, po administered prior to antigen egg albumin challenge
Rattus norvegicus [5] = assay: Antiallergic activity in anti-egg albumin homocytotropic antibody-sensitized Sprague-Dawley rat assessed as inhibition of passive cutaneous anaphylaxis reaction at 50 mg/kg, po administered 120 mins prior to antigen egg albumin challenge
Rattus norvegicus [6] = assay: Antiallergic activity in anti-egg albumin homocytotropic antibody-sensitized Sprague-Dawley rat assessed as inhibition of passive cutaneous anaphylaxis reaction at 10 mg/kg, po administered 20 mins prior to antigen egg albumin challenge
Rattus norvegicus [7] = assay: Antiallergic activity in anti-egg albumin homocytotropic antibody-sensitized Sprague-Dawley rat assessed as inhibition of passive cutaneous anaphylaxis reaction at 10 mg/kg, po administered 60 mins prior to antigen egg albumin challenge
Rattus norvegicus [8] = assay: Antiallergic activity in anti-egg albumin homocytotropic antibody-sensitized Sprague-Dawley rat assessed as inhibition of passive cutaneous anaphylaxis reaction at 10 mg/kg, po administered 5 mins prior to antigen egg albumin challenge
Rattus norvegicus [9] = assay: Antiallergic activity in anti-egg albumin homocytotropic antibody-sensitized Sprague-Dawley rat assessed as inhibition of passive cutaneous anaphylaxis reaction at 1 mg/kg, iv administered at the time of antigen egg albumin challenge
Rattus norvegicus [10] = assay: Antiallergic activity in anti-egg albumin homocytotropic antibody-sensitized Sprague-Dawley rat assessed as inhibition of passive cutaneous anaphylaxis reaction at 0.1 mg/kg, iv administered at the time of antigen egg albumin challenge
Rattus norvegicus [11] = assay: Antiallergic activity in anti-egg albumin homocytotropic antibody-sensitized Sprague-Dawley rat assessed as inhibition of passive cutaneous anaphylaxis reaction at 0.01 mg/kg, iv administered at the time of antigen egg albumin challenge
Rattus norvegicus [12] = assay: Antiallergic activity in anti-egg albumin homocytotropic antibody-sensitized Sprague-Dawley rat assessed as inhibition of passive cutaneous anaphylaxis reaction at 0.001 mg/kg, iv administered at the time of antigen egg albumin challenge
Rattus norvegicus [13] = assay: Antiallergic activity in anti-egg albumin homocytotropic antibody-sensitized Sprague-Dawley rat assessed as inhibition of passive cutaneous anaphylaxis reaction at 50 mg/kg, po administered prior to antigen egg albumin challenge

SMILES	inhibition in vivo at 50 mg/kg (Rattus norvegicus [1])	inhibition in vivo at 50 mg/kg (Rattus norvegicus [2])	inhibition in vivo at 50 mg/kg (Rattus norvegicus [3])	inhibition in vivo at 1 mg/kg (Rattus norvegicus [9])	inhibition in vivo at 0.1 mg/kg (Rattus norvegicus [10])	also measured
CCOC(=O)C(=O)Nc1cccc(NC(=O)C(=O)OCC)c1F	0%	–	–	–	–	–
CCOC(=O)C(=O)Nc1cccc(NC(=O)C(=O)OCC)c1Cl	1.8%	17%	53%	–	–	Time (Rattus norvegicus [4]): 5 min
CCOC(=O)C(=O)Nc1cccc(NC(=O)C(=O)OCC)c1C(=O)OC	15%	27%	–	–	–	inhibition in vivo at 50 mg/kg (Rattus norvegicus [5]): 0%
CCOC(=O)C(=O)Nc1cccc(NC(=O)C(=O)OCC)c1C	–	53%	28%	–	–	–
CCOC(=O)C(=O)Nc1cccc(NC(=O)C(=O)OCC)c1OC	22%	11%	72%	–	–	–
CCOC(=O)C(=O)Nc1ccc(C)c(NC(=O)C(=O)OCC)c1	12%	38%	17%	–	–	–
CCCCc1ccc(NC(=O)C(=O)OCC)cc1NC(=O)C(=O)OCC	5%	0%	0%	–	–	inhibition in vivo at 50 mg/kg (Rattus norvegicus [5]): 0%
CCOC(=O)C(=O)Nc1ccc(OC)c(NC(=O)C(=O)OCC)c1	11%	70%	50%	–	–	inhibition in vivo at 50 mg/kg (Rattus norvegicus [5]): 45%
CCOC(=O)C(=O)Nc1ccc(C#N)c(NC(=O)C(=O)OCC)c1	–	–	–	–	–	inhibition in vivo at 10 mg/kg (Rattus norvegicus [6]): 19%; inhibition in vivo at 10 mg/kg (Rattus norvegicus [7]): 19%; inhibition in vivo at 10 mg/kg (Rattus norvegicus [8]): 7%
CCOC(=O)C(=O)Nc1ccc(F)c(NC(=O)C(=O)OCC)c1	18%	64%	74%	–	–	–
CCOC(=O)C(=O)Nc1cc(NC(=O)C(=O)OCC)cc(OC)c1	0%	4%	–	–	–	inhibition in vivo at 50 mg/kg (Rattus norvegicus [5]): 29%
CCOC(=O)C(=O)Nc1cc(NC(=O)C(=O)OCC)cc(C(=O)O)c1	0%	0%	14%	–	–	inhibition in vivo at 50 mg/kg (Rattus norvegicus [5]): 20%
CCOC(=O)C(=O)Nc1cc(NC(=O)C(=O)OCC)cc([N+](=O)[O-])c1	6%	0%	0%	–	–	–
CCOC(=O)C(=O)Nc1cc(NC(=O)C(=O)OCC)cc(NC(=O)C(=O)OCC)c1	5%	0%	–	–	–	inhibition in vivo at 50 mg/kg (Rattus norvegicus [5]): 0%
CCOC(=O)C(=O)Nc1cc(NC(C)=O)cc(NC(=O)C(=O)OCC)c1	0%	1%	6%	–	–	inhibition in vivo at 50 mg/kg (Rattus norvegicus [5]): 24%
CCOC(=O)C(=O)Nc1cc(C)cc(NC(=O)C(=O)OCC)c1Cl	0%	26%	–	–	–	inhibition in vivo at 50 mg/kg (Rattus norvegicus [5]): 3%
CCOC(=O)C(=O)Nc1cc(C(=O)O)cc(NC(=O)C(=O)OCC)c1Cl	15%	41%	15%	–	–	inhibition in vivo at 50 mg/kg (Rattus norvegicus [5]): 9%
CCOC(=O)C(=O)Nc1cc(C(=O)OC)cc(NC(=O)C(=O)OCC)c1Cl	0%	7%	–	–	–	inhibition in vivo at 50 mg/kg (Rattus norvegicus [5]): 0%
CCOC(=O)C(=O)Nc1cc(C(N)=O)cc(NC(=O)C(=O)OCC)c1Cl	–	49%	85%	–	–	–
CCOC(=O)C(=O)Nc1cc(C(C)=O)cc(NC(=O)C(=O)OCC)c1Cl	37%	14%	–	–	–	inhibition in vivo at 50 mg/kg (Rattus norvegicus [5]): 31%
CCOC(=O)C(=O)Nc1cc(C(F)(F)F)cc(NC(=O)C(=O)OCC)c1Cl	4%	10%	10%	–	–	–
CCOC(=O)C(=O)Nc1cc(S(C)(=O)=O)cc(NC(=O)C(=O)OCC)c1Cl	0%	0%	0%	–	–	–
CCOC(=O)C(=O)Nc1cc(-c2ccccc2)cc(NC(=O)C(=O)OCC)c1Cl	–	25%	25%	–	–	–
CCOC(=O)C(=O)Nc1c([N+](=O)[O-])cc([N+](=O)[O-])c(NC(=O)C(=O)OCC)c1Cl	0%	25%	–	–	–	–
CCOC(=O)C(=O)Nc1cc(C(=O)O)cc(NC(=O)C(=O)OCC)c1C	0%	0%	0%	–	–	inhibition in vivo at 50 mg/kg (Rattus norvegicus [5]): 0%
CCOC(=O)C(=O)Nc1cc(C(F)(F)F)cc(NC(=O)C(=O)OCC)c1C#N	0%	25%	50%	–	–	–
CCOC(=O)C(=O)Nc1cc(C(=O)OC)c(Cl)c(NC(=O)C(=O)OCC)c1Cl	0%	0%	–	–	–	inhibition in vivo at 50 mg/kg (Rattus norvegicus [5]): 0%

SMILES	inhibition in vivo at 50 mg/kg (Rattus norvegicus [1])	inhibition in vivo at 50 mg/kg (Rattus norvegicus [2])	inhibition in vivo at 50 mg/kg (Rattus norvegicus [3])	inhibition in vivo at 1 mg/kg (Rattus norvegicus [9])	inhibition in vivo at 0.1 mg/kg (Rattus norvegicus [10])	also measured
CCOC(=O)C(=O)Nc1cc(NC(=O)C(=O)OCC)c(Cl)cc1Cl	25%	50%	–	–	–	–
CCOC(=O)C(=O)Nc1cc(NC(=O)C(=O)OCC)c([N+](=O)[O-])cc1[N+](=O)[O-]	9%	17%	–	–	–	–
CCOC(=O)C(=O)Nc1cc(C#N)c(Cl)c(NC(=O)C(=O)OCC)c1	0%	20%	100%	–	–	–
CCOC(=O)C(=O)Nc1cc(NC(=O)C(=O)OCC)c(Cl)c(-c2ccccc2)c1	51%	10%	72%	–	–	–
O=C(O)C(=O)Nc1cccc(NC(=O)C(=O)O)c1	–	–	–	82%	73%	inhibition in vivo at 0.01 mg/kg (Rattus norvegicus [11]): 0%
O=C(O)C(=O)Nc1cccc(NC(=O)C(=O)O)c1Cl	–	–	–	75%	32%	–
COc1ccc(NC(=O)C(=O)O)cc1NC(=O)C(=O)O	–	–	–	100%	0%	–
N#Cc1ccc(NC(=O)C(=O)O)cc1NC(=O)C(=O)O	–	–	–	87%	8%	–
O=C(O)C(=O)Nc1ccc(F)c(NC(=O)C(=O)O)c1	–	–	–	100%	41%	–
NC(=O)c1cc(NC(=O)C(=O)O)cc(NC(=O)C(=O)O)c1	–	–	–	91%	17%	–
N#Cc1cc(NC(=O)C(=O)O)cc(NC(=O)C(=O)O)c1	–	–	–	–	90%	inhibition in vivo at 0.01 mg/kg (Rattus norvegicus [11]): 57%
CC(=O)Nc1cc(NC(=O)C(=O)O)cc(NC(=O)C(=O)O)c1	–	–	–	47%	11%	inhibition in vivo at 0.01 mg/kg (Rattus norvegicus [11]): 0%
Cc1cc(NC(=O)C(=O)O)c(Cl)c(NC(=O)C(=O)O)c1	–	–	–	100%	91%	inhibition in vivo at 0.01 mg/kg (Rattus norvegicus [11]): 20%; inhibition in vivo at 0.001 mg/kg (Rattus norvegicus [12]): 2%
NC(=O)c1cc(NC(=O)C(=O)O)c(Cl)c(NC(=O)C(=O)O)c1	–	–	–	90%	28%	inhibition in vivo at 0.01 mg/kg (Rattus norvegicus [11]): 0%
CC(=O)c1cc(NC(=O)C(=O)O)c(Cl)c(NC(=O)C(=O)O)c1	–	–	–	88%	22%	inhibition in vivo at 0.01 mg/kg (Rattus norvegicus [11]): 0%
O=C(O)C(=O)Nc1cc(C(F)(F)F)cc(NC(=O)C(=O)O)c1Cl	–	–	–	–	100%	inhibition in vivo at 0.01 mg/kg (Rattus norvegicus [11]): 90%; inhibition in vivo at 0.001 mg/kg (Rattus norvegicus [12]): 0%
O=C(O)C(=O)Nc1cc(-c2ccccc2)cc(NC(=O)C(=O)O)c1Cl	–	–	–	94%	87%	inhibition in vivo at 0.01 mg/kg (Rattus norvegicus [11]): 44%
O=C(O)C(=O)Nc1cc(NC(=O)C(=O)O)c(Cl)cc1Cl	–	–	–	81%	25%	inhibition in vivo at 0.01 mg/kg (Rattus norvegicus [11]): 0%
N#Cc1cc(NC(=O)C(=O)O)cc(NC(=O)C(=O)O)c1Cl	–	–	–	100%	100%	inhibition in vivo at 0.01 mg/kg (Rattus norvegicus [11]): 20%; inhibition in vivo at 0.001 mg/kg (Rattus norvegicus [12]): 0%
O=C(O)C(=O)Nc1cc(CS(=O)O)cc(NC(=O)C(=O)O)c1Cl	–	–	–	85%	10%	–
CCCCOC(=O)C(=O)Nc1cc(C#N)cc(NC(=O)C(=O)OCCCC)c1Cl	–	–	–	–	–	inhibition in vivo at 50 mg/kg (Rattus norvegicus [13]): 100%; Time (Rattus norvegicus [4]): 5 min
CCCCCCOC(=O)C(=O)Nc1cc(C#N)cc(NC(=O)C(=O)OCCCCCC)c1Cl	–	–	–	–	–	inhibition in vivo at 50 mg/kg (Rattus norvegicus [13]): 51%; Time (Rattus norvegicus [4]): 5 min
N#Cc1cc(NC(=O)C(=O)OC23CC4CC(CC(C4)C2)C3)c(Cl)c(NC(=O)C(=O)OC23CC4CC(CC(C4)C2)C3)c1	–	–	–	–	–	inhibition in vivo at 50 mg/kg (Rattus norvegicus [13]): 50%; Time (Rattus norvegicus [4]): 60 min
O=C(O)C(=O)Nc1ccc(NC(=O)C(=O)O)cc1	–	–	–	18%	–	–
N#Cc1cc(NC(=O)C(=O)O)ccc1NC(=O)C(=O)O	–	–	–	45%	–	–
O=C(O)C(=O)Nc1cc(Cl)c(NC(=O)C(=O)O)cc1Cl	–	–	–	73%	–	–
